Source: patent US9656988B2 (Pharmacyclics LLC, priority 2013, dated 2017)
pIC50: −log10 of the molar value. Like-named read-outs stand apart in the source and are kept apart here.

Target: BTK (Homo sapiens (Human), UniProt Q06187)
Assay: Btk in vitro inhibitory activity (one of Method A TR-FRET, Method B electrophoretic mobility shift, Method C radiometric filter binding)
Assay type: biochemical
[1] = determined using one of the methods of Example 355a, 355b and 355c, read-out: BTK IC50

Sequence of BTK (Q06187 whole entry): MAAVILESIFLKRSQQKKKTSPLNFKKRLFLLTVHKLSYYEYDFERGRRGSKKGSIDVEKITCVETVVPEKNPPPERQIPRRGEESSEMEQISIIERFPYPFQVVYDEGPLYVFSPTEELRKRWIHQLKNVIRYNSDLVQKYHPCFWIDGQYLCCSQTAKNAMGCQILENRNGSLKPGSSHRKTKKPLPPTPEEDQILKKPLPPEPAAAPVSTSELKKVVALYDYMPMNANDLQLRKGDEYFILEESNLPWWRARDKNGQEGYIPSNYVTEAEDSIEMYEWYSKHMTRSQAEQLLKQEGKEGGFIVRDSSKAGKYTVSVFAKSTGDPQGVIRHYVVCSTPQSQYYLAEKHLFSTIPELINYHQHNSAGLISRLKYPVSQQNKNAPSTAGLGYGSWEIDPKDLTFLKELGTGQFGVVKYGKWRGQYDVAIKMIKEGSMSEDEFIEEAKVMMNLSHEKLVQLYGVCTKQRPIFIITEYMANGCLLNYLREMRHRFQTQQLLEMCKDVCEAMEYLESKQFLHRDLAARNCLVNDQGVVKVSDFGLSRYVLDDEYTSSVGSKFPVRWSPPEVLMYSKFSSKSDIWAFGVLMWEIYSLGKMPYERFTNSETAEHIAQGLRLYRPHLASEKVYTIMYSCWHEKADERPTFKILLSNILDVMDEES

SMILES	pIC50 [1]	pIC50 (read-out: Btk (IC50))	pIC50 (Btk (IC50))
CN(C)C(=O)N1CC[C@@H]2CCN(c3cnc(C(N)=O)c(Nc4ccc(C5CCN(C6CCCC6)CC5)cc4)n3)C[C@@H]21 (racemic) [Example 292, (3aS,7aR)-6-(5-carbamoyl-6-(4-(1-cyclopentylpiperidin-4-yl)phenylamino)pyrazin-2-yl)-N,N-dimethyloctahydro-1H-pyrrolo[2,3-c]pyridine-1-carboxamide]	7.00 to 8.00		7.00 to 8.00
NC(=O)c1ncc(N2CC[C@H]3CCN(C(=O)C4CC4)[C@H]3C2)nc1Nc1ccc(C2CCN(C3CCCC3)CC2)cc1 (racemic) [Example 293, 3-(4-(1-cyclopentylpiperidin-4-yl)phenylamino)-5-((3aS,7aR)-1-(cyclopropanecarbonyl)tetrahydro-1H-pyrrolo[2,3-c]pyridin-6(2H,7H,7aH)-yl)pyrazine-2-carboxamide]	7.00 to 8.00	7.00 to 8.00	
Cc1ccc(C(=O)N[C@@H]2CCCN(c3nnc(C(N)=O)c(Nc4ccc(C(=O)N5CCOCC5)cc4)n3)C2)cc1 [Example 4, (R)-3-(3-(4-methylbenzamido)piperidin-1-yl)-5-(4-(morpholine-4-carbonyl)phenylamino)-1,2,4-triazine-6-carboxamide]	> 8.00		
NC(=O)c1nnc(N2CCC[C@@H](NC(=O)c3ccccc3)C2)nc1Nc1ccc(C(=O)N2CCOCC2)cc1 [Example 5, (R)-3-(3-benzamidopiperidin-1-yl)-5-(4-(morpholine-4-carbonyl)phenylamino)-1,2,4-triazine-6-carboxamide]	> 8.00		
NC(=O)c1nnc(N2CCC[C@@H](NC(=O)c3ccc(C(F)(F)F)cc3)C2)nc1Nc1ccc(C(=O)N2CCOCC2)cc1 [Example 6, (R)-5-(4-(morpholine-4-carbonyl)phenylamino)-3-(3-(4-(trifluoromethyl)benzamido)piperidin-1-yl)-1,2,4-triazine-6-carboxamide]	> 8.00		
N#Cc1ccc(C(=O)N[C@@H]2CCCN(c3nnc(C(N)=O)c(Nc4ccc(C(=O)N5CCOCC5)cc4)n3)C2)cc1 [Example 7, (R)-3-(3-(4-cyanobenzamido)piperidin-1-yl)-5-(4-(morpholine-4-carbonyl)phenylamino)-1,2,4-triazine-6-carboxamide]	7.00 to 8.00		
NC(=O)c1nnc(N2CCC[C@@H](NC(=O)c3ccc(Cl)cc3)C2)nc1Nc1ccc(C(=O)N2CCOCC2)cc1 [Example 8, (R)-3-(3-(4-chlorobenzamido)piperidin-1-yl)-5-(4-(morpholine-4-carbonyl)phenylamino)-1,2,4-triazine-6-carboxamide]	> 8.00		
NC(=O)c1nnc(N2CCC[C@@H](NC(=O)c3ccc(F)cc3)C2)nc1Nc1ccc(C(=O)N2CCOCC2)cc1 [Example 9, (R)-3-(3-(4-fluorobenzamido)piperidin-1-yl)-5-(4-(morpholine-4-carbonyl)phenylamino)-1,2,4-triazine-6-carboxamide]	> 8.00		
COc1ccc(C(=O)N[C@@H]2CCCN(c3nnc(C(N)=O)c(Nc4ccc(C(=O)N5CCOCC5)cc4)n3)C2)cc1 [Example 10, (R)-3-(3-(4-methoxybenzamido)piperidin-1-yl)-5-(4-(morpholine-4-carbonyl)phenylamino)-1,2,4-triazine-6-carboxamide]	> 8.00		
NC(=O)c1nnc(N2CCC[C@@H](NC(=O)c3ccc(C4CC4)cc3)C2)nc1Nc1ccc(C(=O)N2CCOCC2)cc1 [Example 11, (R)-3-(3-(4-cyclopropylbenzamido)piperidin-1-yl)-5-(4-(morpholine-4-carbonyl)phenylamino)-1,2,4-triazine-6-carboxamide]	> 8.00		
NC(=O)c1nnc(N2CCC[C@@H](NC(=O)c3ccccn3)C2)nc1Nc1ccc(C(=O)N2CCOCC2)cc1 [Example 12, (R)-5-(4-(morpholine-4-carbonyl)phenylamino)-3-(3-(picolinamido)piperidin-1-yl)-1,2,4-triazine-6-carboxamide]	> 8.00		
NC(=O)c1nnc(N2CCC[C@@H](NC(=O)c3cccnc3)C2)nc1Nc1ccc(C(=O)N2CCOCC2)cc1 [Example 13, (R)-5-(4-(morpholine-4-carbonyl)phenylamino)-3-(3-(nicotinamido)piperidin-1-yl)-1,2,4-triazine-6-carboxamide]	7.00 to 8.00		
NC(=O)c1nnc(N2CCC[C@@H](NC(=O)c3ccncc3)C2)nc1Nc1ccc(C(=O)N2CCOCC2)cc1 [Example 14, (R)-3-(3-(isonicotinamido)piperidin-1-yl)-5-(4-(morpholine-4-carbonyl)phenylamino)-1,2,4-triazine-6-carboxamide]	> 8.00		
NC(=O)c1nnc(N2CCC[C@@H](NC(=O)c3nccs3)C2)nc1Nc1ccc(C(=O)N2CCOCC2)cc1 [Example 16, (R)—N-(1-(6-carbamoyl-5-(4-(morpholine-4-carbonyl)phenylamino)-1,2,4-triazin-3-yl)piperidin-3-yl)thiazole-2-carboxamide]	> 8.00		
NC(=O)c1nnc(N2CCC[C@@H](NC(=O)c3ccc(Cl)s3)C2)nc1Nc1ccc(C(=O)N2CCOCC2)cc1 [Example 17, (R)-3-(3-(5-chlorothiophene-2-carboxamido)piperidin-1-yl)-5-(4-(morpholine-4-carbonyl)phenylamino)-1,2,4-triazine-6-carboxamide]	> 8.00		
NC(=O)c1nnc(N2CCC[C@@H](NC(=O)c3ccn4ccnc4c3)C2)nc1Nc1ccc(C(=O)N2CCOCC2)cc1 [Example 20, (R)—N-(1-(6-carbamoyl-5-(4-(morpholine-4-carbonyl)phenylamino)-1,2,4-triazin-3-yl)piperidin-3-yl)imidazo[1,2-a]pyridine-7-carboxamide]	7.00 to 8.00		
N#CC1(C(=O)N[C@@H]2CCCN(c3nnc(C(N)=O)c(Nc4ccc(C(=O)N5CCOCC5)cc4)n3)C2)CC1 [Example 28, (R)-3-(3-(1-cyanocyclopropanecarboxamido)piperidin-1-yl)-5-(4-(morpholine-4-carbonyl)phenylamino)-1,2,4-triazine-6-carboxamide]	7.00 to 8.00		
NC(=O)c1nnc(N2CCC[C@@H](NC(=O)C3CCOCC3)C2)nc1Nc1ccc(C(=O)N2CCOCC2)cc1 [Example 30, (R)-5-(4-(morpholine-4-carbonyl)phenylamino)-3-(3-(tetrahydro-2H-pyran-4-carboxamido)piperidin-1-yl)-1,2,4-triazine-6-carboxamide]	7.00 to 8.00		

Second part, the compound after the results:

pIC50 [1]	pIC50 (read-out: Btk (IC50))	pIC50 (Btk (IC50))	SMILES
7.00 to 8.00	7.00 to 8.00		CN(C)C(=O)N1CC[C@@H]2[C@H]1CCCN2c1cnc(C(N)=O)c(Nc2ccc(C3CCN(C4CCCC4)CC3)cc2)n1 (racemic) [Example 287, (3aR,7aR)-4-(5-carbamoyl-6-(4-(1-cyclopentylpiperidin-4-yl)phenylamino)pyrazin-2-yl)-N,N-dimethyloctahydro-1H-pyrrolo[3,2-b]pyridine-1-carboxamide]
7.00 to 8.00	7.00 to 8.00		NC(=O)c1ncc(N2CCC[C@@H]3[C@H]2CCN3C(=O)C2CC2)nc1Nc1ccc(C2CCN(C3CCCC3)CC2)cc1 (racemic) [Example 288, 3-(4-(1-cyclopentylpiperidin-4-yl)phenylamino)-5-((3aR,7aR)-1-(cyclopropanecarbonyl)dihydro-1H-pyrrolo[3,2-b]pyridin-4(2H,5H,6H,7H,7aH)-yl)pyrazine-2-carboxamide]
6.00 to 7.00			NC(=O)c1ncc(N2CC[C@H]3CCN[C@H]3C2)nc1Nc1ccc(C2CCN(C3CCCC3)CC2)cc1 (racemic) [Example 291]
> 8.00			CC1[C@H](NC(=O)C2CC2)CCCN1c1cnc(C(N)=O)c(Nc2ccc(C3CCN(C4CCCC4)CC3)cc2)n1 (stereo in doubt) [Example 349, (R)-3-(4-(1-cyclopentylpiperidin-4-yl)phenylamino)-5-(3-(cyclopropanecarboxamido)-2-methylpiperidin-1-yl)pyrazine-2-carboxamide]
7.00 to 8.00			CN(C(=O)c1ccc(C(C)(C)C)cc1)[C@@H]1CCCN(c2nnc(C(N)=O)c(Nc3ccc(C(=O)N4CCOCC4)cc3)n2)C1 [Example 3, (R)-3-(3-(4-tert-butyl-N-methylbenzamido)piperidin-1-yl)-5-(4-(morpholine-4-carbonyl)phenylamino)-1,2,4-triazine-6-carboxamide]
7.00 to 8.00			NC(=O)c1nnc(N2CCC[C@@H](NC(=O)c3ncccn3)C2)nc1Nc1ccc(C(=O)N2CCOCC2)cc1 [Example 15, (R)-5-(4-(morpholine-4-carbonyl)phenylamino)-3-(3-(pyrimidine-2-carboxamido)piperidin-1-yl)-1,2,4-triazine-6-carboxamide]
7.00 to 8.00			CC#CC(=O)N[C@@H]1CCCN(c2nnc(C(N)=O)c(Nc3ccc(C(=O)N4CCOCC4)cc3)n2)C1 [Example 23, (R)-3-(3-but-2-ynamidopiperidin-1-yl)-5-(4-(morpholine-4-carbonyl)phenylamino)-1,2,4-triazine-6-carboxamide]
7.00 to 8.00			CC(C)C(=O)N[C@@H]1CCCN(c2nnc(C(N)=O)c(Nc3ccc(C(=O)N4CCOCC4)cc3)n2)C1 [Example 24, (R)-3-(3-isobutyramidopiperidin-1-yl)-5-(4-(morpholine-4-carbonyl)phenylamino)-1,2,4-triazine-6-carboxamide]
7.00 to 8.00			NC(=O)c1nnc(N2CCC[C@@H](NC(=O)C3CC3)C2)nc1Nc1ccc(C(=O)N2CCOCC2)cc1 [Example 25, (R)-3-(3-(cyclopropanecarboxamido)piperidin-1-yl)-5-(4-(morpholine-4-carbonyl)phenylamino)-1,2,4-triazine-6-carboxamide]
7.00 to 8.00			NC(=O)c1nnc(N2CCC[C@@H](NC(=O)C3CCCC3)C2)nc1Nc1ccc(C(=O)N2CCOCC2)cc1 [Example 29, (R)-3-(3-(cyclopentanecarboxamido)piperidin-1-yl)-5-(4-(morpholine-4-carbonyl)phenylamino)-1,2,4-triazine-6-carboxamide]
7.00 to 8.00			CN1CCC(C(=O)N[C@@H]2CCCN(c3nnc(C(N)=O)c(Nc4ccc(C(=O)N5CCOCC5)cc4)n3)C2)CC1 [Example 31, (R)-3-(3-(1-methylpiperidine-4-carboxamido)piperidin-1-yl)-5-(4-(morpholine-4-carbonyl)phenylamino)-1,2,4-triazine-6-carboxamide]
